Results from patent publication US20090238808A1, “Process for the identification of novel enzyme interacting compounds” (priority 2005, published 2009).
Blank lines part the entries; values can stand above or below the molecule they belong to.

Assays:
Assay in all cases: Kinobeads elution with test compound, mouse brain lysate, MS
Format in all cases: binding
Conditions in all cases: kinase released from kinobeads by specific elution
[1] = molecular target: AAK1 (Mus musculus, UniProt Q3UHJ0)
Description: (§1) This example illustrates competitive elution of proteins bound to kinobeads with non-modified test compounds (see particularly the fourth aspect of the invention). The kinobeads (as described in example 1) were contacted with mouse brains lysate, bound proteins were eluted with various test compounds and the released proteins were analysed by mass spectrometry.
(§2) The kinobeads were contacted with mouse brain lysate under conditions that allow the binding of the proteins in the lysate to the ligands. The binding conditions were close to physiological by choosing suitable buffer conditions preserving the function of the proteins. After removing non-captured proteins through a gentle washing procedure the bound proteins were contacted with a test compound for protein elution.
(§3) Various test compounds (see section 2.7) were used to release bound proteins following these steps:
(§4) 1. Resuspend beads with bound proteins (section 2.4) in 1×DP buffer/0.2% NP-40 as 1:3 slurry (volume/volume). 2. Transfer 20 μl the 1:3 slurry into MoBiTech columns (equivalent to 5 μl of beads). 3. Place the column into an Eppendorf tube and centrifuge it for 15 seconds at 800 rpm at 4° C. Close columns with lower lid. 4. Add 10 μl elution buffer containing 1.0 mM of the test compound (concentration ranges of 0.1 to 1.0 mM are suitable). As a control use elution buffer containing 2% DMSO or 2% DMF dependent on the solvent used for dissolving the test compound. Close column with upper lid. 5. Incubate for 30 minutes at 4° C. in an Eppendorf incubator at 700 rpm. 6. Open column (first top, then bottom), put column back into siliconized tube (SafeSeal Microcentrifuge Tubes, cat. no 11270, Sorenson BioScience, Inc.). To harvest the eluate centrifuge 2 minutes at 2.000 rpm in table top centrifuge at room temperature. The typical volume of the eluate is approximately 15 μl. 7. Add 5 μl 4× NuPAGE SDS Sample Buffer (Invitrogen, NP0007) containing 100 mM DTT (DTT has to be added just prior to use). 8. Incubate for 30 minutes at 50° C. 9. Add 1/10 volume of 200 mg/ml iodoacetamide, incubate for 30 min at room temperature, protect from light. This reaction leads to the alkylation of cysteines for mass spectrometry. 10. Before loading samples onto the gel, centrifuge samples for 5 minutes at 15.000 rpm in order to remove precipitates. 11. For protein separation apply 10 μl sample to NuPAGE 4-12% Bis-Tris gel (Invitrogen, NPO335). 2.6 Preparation of Stock Solutions used in this Protocol
(§5) Search criteria varied depending on which mass spectrometer was used for the analysis.

[2] = molecular target: CDK5 (Mus musculus, UniProt P49615)
Chain of CDK5 (P49615 whole entry): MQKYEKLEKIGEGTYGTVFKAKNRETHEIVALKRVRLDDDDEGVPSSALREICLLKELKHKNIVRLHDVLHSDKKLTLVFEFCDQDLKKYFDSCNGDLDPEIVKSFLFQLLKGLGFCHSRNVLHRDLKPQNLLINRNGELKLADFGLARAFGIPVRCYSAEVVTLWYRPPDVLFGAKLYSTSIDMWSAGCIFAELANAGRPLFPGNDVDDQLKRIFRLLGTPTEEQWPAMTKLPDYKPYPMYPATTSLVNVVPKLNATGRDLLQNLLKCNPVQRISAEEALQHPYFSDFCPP
Description: as §1, §2, §3, §4, §5

[3] = molecular target: T1, Erk2 (Mus musculus, UniProt P63085)
T1 construct: […]; from tissue; host or cells: mouse brain
T1 sequence (P63085 whole entry): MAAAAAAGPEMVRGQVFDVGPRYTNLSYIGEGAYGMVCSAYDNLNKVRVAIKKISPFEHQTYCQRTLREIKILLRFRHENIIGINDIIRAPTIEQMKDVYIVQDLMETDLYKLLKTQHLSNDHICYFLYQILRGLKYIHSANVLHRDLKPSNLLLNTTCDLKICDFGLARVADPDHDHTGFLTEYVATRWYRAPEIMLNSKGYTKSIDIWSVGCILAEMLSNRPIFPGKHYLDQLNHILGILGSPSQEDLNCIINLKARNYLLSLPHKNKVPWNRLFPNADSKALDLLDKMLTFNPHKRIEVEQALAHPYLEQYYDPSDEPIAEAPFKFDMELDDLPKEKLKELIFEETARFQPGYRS
Description: as §1, §2, §3, §4, §5

[4] = molecular target: T2, GSK3Aps (Mus musculus, UniProt Q2NL51)
T2 construct: from tissue; host or cells: mouse brain
T2 sequence (Q2NL51 2-490 limits assumed): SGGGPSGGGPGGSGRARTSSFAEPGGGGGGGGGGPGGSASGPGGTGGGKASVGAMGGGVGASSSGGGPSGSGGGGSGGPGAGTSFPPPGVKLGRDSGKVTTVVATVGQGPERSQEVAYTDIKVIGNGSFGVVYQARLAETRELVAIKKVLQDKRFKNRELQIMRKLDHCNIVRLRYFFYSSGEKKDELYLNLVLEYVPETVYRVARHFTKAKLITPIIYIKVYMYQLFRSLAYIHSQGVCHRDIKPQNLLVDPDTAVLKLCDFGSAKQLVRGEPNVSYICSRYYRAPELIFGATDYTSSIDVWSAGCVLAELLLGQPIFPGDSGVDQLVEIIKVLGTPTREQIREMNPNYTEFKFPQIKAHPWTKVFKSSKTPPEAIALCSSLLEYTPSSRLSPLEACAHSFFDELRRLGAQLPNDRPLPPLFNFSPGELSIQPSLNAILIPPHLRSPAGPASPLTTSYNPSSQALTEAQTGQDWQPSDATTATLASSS
Description: as §1, §2, §3, §4, §5

[5] = molecular target: T3, JNK1 (Mus musculus, UniProt Q91Y86)
T3 construct: from tissue; host or cells: mouse brain
Description: as §1, §2, §3, §4, §5

[6] = molecular target: T4, JNK2 (Mus musculus, UniProt Q9WTU6)
T4 construct: from tissue; host or cells: mouse brain
T4 sequence (Q9WTU6 whole entry): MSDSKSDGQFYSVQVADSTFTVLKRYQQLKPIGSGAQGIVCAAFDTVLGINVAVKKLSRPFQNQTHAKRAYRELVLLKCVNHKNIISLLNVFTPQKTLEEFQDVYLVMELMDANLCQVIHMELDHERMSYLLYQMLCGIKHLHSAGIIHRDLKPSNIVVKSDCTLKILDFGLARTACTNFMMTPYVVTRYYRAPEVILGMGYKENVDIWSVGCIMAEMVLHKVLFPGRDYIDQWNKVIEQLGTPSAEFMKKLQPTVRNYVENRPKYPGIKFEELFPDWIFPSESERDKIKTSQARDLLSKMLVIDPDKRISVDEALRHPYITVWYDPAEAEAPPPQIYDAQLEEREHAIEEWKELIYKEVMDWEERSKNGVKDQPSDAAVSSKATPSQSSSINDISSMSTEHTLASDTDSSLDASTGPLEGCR
Description: as §1, §2, §3, §4, §5

[7] = molecular target: T5, JNK3 (Mus musculus, UniProt Q61831)
T5 construct: from tissue; host or cells: mouse brain
T5 sequence (Q61831 whole entry): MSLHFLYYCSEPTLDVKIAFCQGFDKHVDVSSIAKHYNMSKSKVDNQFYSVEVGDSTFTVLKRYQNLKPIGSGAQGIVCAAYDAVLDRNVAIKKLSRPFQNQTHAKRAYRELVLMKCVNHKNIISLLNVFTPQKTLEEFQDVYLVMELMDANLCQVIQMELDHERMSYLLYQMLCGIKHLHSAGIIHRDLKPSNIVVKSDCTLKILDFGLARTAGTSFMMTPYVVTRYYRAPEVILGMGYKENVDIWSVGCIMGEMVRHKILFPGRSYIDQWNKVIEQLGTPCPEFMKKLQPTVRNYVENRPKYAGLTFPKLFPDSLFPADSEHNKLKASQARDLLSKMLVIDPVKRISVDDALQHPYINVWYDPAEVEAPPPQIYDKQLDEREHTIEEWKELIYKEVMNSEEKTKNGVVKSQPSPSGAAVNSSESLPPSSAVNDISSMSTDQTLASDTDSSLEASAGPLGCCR
Description: as §1, §2, §3, §4, §5

[8] = molecular target: T6, p38a (Mus musculus, UniProt P47811)
T6 construct: from tissue; host or cells: mouse brain
T6 sequence (P47811 whole entry): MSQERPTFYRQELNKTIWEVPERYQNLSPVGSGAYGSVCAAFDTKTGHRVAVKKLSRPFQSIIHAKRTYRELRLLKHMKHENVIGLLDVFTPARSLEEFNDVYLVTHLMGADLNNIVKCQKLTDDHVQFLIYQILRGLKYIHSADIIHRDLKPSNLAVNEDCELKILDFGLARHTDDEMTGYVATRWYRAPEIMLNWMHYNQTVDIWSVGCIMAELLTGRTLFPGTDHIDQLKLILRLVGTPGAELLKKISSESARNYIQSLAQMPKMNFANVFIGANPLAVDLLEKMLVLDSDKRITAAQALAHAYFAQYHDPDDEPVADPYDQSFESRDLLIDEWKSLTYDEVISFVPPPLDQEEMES
Description: as §1, §2, §3, §4, §5

[9] = molecular target: T7, p38b (Mus musculus, UniProt Q9WUI1)
T7 construct: from tissue; host or cells: mouse brain
T7 sequence (Q9WUI1 whole entry): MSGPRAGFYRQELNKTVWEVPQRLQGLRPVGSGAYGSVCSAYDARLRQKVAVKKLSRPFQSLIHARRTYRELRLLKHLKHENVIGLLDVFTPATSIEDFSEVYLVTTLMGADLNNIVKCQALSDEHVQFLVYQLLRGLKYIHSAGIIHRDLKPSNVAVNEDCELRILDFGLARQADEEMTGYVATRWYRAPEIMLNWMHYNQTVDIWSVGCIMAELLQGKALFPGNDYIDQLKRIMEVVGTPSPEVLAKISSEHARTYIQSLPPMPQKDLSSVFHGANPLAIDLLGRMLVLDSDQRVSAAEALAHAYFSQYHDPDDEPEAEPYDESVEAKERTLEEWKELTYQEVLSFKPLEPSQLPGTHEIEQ
Description: as §1, §2, §3, §4, §5

[10] = molecular target: T8, GSK3B (Mus musculus, UniProt Q9WV60)
T8 construct: from tissue; host or cells: mouse brain
T8 sequence (Q9WV60 whole entry): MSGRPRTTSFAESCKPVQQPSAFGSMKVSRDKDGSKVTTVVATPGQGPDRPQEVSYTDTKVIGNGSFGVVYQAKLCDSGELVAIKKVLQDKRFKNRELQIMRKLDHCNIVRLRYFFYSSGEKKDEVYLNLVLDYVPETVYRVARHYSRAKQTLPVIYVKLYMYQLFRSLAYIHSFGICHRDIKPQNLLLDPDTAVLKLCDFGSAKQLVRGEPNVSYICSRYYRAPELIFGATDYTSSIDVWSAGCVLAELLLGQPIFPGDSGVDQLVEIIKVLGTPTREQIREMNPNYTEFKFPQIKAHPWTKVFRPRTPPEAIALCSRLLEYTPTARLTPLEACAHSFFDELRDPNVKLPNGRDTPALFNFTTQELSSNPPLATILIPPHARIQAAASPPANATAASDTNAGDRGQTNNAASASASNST
From the text: (§6) This example illustrates competitive elution of proteins bound to kinobeads with non-modified test compounds (see particularly the fourth aspect of the invention).
as §2, §3
as §4, with “Open column (first top, then bottom), put column back into siliconized tube (SafeSeal Microcentrifuge Tubes, cat. no 11270, Sorenson BioScience, Inc.).” left out, “For protein separation apply 10 μl sample to NuPAGE 4-12% Bis-Tris gel (Invitrogen, NPO335).” left out
as §5

[11] = molecular target: CRIK (Mus musculus, UniProt P49025)
Description: as §1, §2, §3, §4, §5

[12] = molecular target: T9, CaMK2a (Mus musculus, UniProt P11798)
T9 construct: […]; from tissue; host or cells: mouse brain
Description: as §1, §2, §3, §4, §5

[13] = molecular target: CaMK2b (Mus musculus, UniProt P28652)
Description: as §1, §2, §3, §4, §5

[14] = molecular target: T10, CaMK2d (Mus musculus, UniProt Q6PHZ2)
T10 construct: […]; from tissue; host or cells: mouse brain
Description: as §1, §2, §3, §4, §5

[15] = molecular target: CaMKK2 (Mus musculus, UniProt Q8C078)
Description: as §1, §2, §3, §4, §5

[16] = molecular target: T11, Erk1ps5 (Mus musculus, UniProt Q63844)
T11 construct: […]; from tissue; host or cells: mouse brain
Description: as §1, §2, §3, §4, §5

[17] = molecular target: FER (Mus musculus, UniProt P70451)
Description: as §1, §2, §3, §4, §5

[18] = molecular target: T12, MAP2K1 (Mus musculus, UniProt P31938)
T12 construct: from tissue; host or cells: mouse brain
Description: as §1, §2, §3, §4, §5

[19] = molecular target: T13, MARK2 (Mus musculus, UniProt Q05512)
T13 construct: from tissue; host or cells: mouse brain
Description: as §1, §2, §3, §4, §5

[20] = molecular target: T14, PKCg (Mus musculus, UniProt P63318)
T14 construct: from tissue; host or cells: mouse brain
Description: as §1, §2, §3, §4, §5

[21] = molecular target: T15, PYK2 (Mus musculus, UniProt Q9QVP9)
T15 construct: from tissue; host or cells: mouse brain
Description: as §1, §2, §3, §4, §5

[22] = tested on: T16, RSK1 (Mus musculus)
T16 construct: from tissue; host or cells: mouse brain
Description: as §1, §2, §3, §4, §5

[23] = molecular target: CaMK2g (Mus musculus, UniProt Q923T9)
Chain of CaMK2g (Q923T9 whole entry): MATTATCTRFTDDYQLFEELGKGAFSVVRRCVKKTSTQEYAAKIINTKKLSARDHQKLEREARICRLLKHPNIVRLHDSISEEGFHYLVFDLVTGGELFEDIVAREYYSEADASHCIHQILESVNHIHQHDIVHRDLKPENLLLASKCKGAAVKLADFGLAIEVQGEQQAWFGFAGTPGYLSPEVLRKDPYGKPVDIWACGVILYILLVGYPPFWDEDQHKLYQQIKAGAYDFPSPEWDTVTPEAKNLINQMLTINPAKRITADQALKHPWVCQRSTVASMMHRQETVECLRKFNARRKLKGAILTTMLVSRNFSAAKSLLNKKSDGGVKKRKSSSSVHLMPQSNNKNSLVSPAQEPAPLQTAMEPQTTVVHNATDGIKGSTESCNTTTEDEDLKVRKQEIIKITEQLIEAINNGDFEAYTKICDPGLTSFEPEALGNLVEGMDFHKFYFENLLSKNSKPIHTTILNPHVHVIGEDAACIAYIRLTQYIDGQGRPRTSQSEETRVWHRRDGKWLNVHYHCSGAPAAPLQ
From the text: as §6, §2, §3
as §4, with “Open column (first top, then bottom), put column back into siliconized tube (SafeSeal Microcentrifuge Tubes, cat. no 11270, Sorenson BioScience, Inc.).” left out, “For protein separation apply 10 μl sample to NuPAGE 4-12% Bis-Tris gel (Invitrogen, NPO335).” left out
as §5

Chain of AAK1 (Q3UHJ0 whole entry): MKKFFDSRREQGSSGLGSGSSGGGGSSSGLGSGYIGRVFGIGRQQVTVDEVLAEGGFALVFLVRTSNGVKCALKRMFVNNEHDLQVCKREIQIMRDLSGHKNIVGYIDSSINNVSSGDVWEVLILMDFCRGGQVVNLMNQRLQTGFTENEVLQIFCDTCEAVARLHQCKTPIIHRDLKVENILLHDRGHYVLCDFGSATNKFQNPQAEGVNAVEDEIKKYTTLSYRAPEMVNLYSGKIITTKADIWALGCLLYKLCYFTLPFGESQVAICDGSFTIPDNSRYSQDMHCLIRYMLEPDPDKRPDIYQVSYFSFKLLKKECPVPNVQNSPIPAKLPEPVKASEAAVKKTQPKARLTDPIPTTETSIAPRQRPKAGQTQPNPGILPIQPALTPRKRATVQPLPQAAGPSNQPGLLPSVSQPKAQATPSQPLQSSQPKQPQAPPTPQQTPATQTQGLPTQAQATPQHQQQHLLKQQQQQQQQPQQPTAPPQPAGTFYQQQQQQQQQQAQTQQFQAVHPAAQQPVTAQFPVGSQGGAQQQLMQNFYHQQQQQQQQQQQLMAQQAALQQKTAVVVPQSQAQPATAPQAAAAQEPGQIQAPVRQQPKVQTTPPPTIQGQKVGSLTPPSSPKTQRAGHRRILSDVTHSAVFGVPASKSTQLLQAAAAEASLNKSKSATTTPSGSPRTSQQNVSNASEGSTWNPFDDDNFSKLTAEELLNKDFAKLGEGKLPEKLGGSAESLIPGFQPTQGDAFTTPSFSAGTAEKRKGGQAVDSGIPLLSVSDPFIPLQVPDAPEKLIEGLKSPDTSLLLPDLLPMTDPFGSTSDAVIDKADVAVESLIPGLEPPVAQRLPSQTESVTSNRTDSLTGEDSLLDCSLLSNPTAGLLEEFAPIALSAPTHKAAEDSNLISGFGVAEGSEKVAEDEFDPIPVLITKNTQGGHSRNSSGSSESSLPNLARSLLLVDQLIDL

mass spectrometry score, AAK1 [1]: 198 | number of identified peptides, AAK1 [1]: 4 | mass spectrometry score, CDK5 [2]: 166 | number of identified peptides, CDK5 [2]: 4 | mass spectrometry score, Erk2 [3]: 506 | number of identified peptides, Erk2 [3]: 20 | mass spectrometry score, GSK3Aps [4]: 406 | number of identified peptides, GSK3Aps [4]: 8 | mass spectrometry score, JNK1 [5]: 540 | number of identified peptides, JNK1 [5]: 19 | mass spectrometry score, JNK2 [6]: 170 | number of identified peptides, JNK2 [6]: 5 | mass spectrometry score, JNK3 [7]: 542 | number of identified peptides, JNK3 [7]: 30 | mass spectrometry score, p38a [8]: 295 | number of identified peptides, p38a [8]: 10 | mass spectrometry score, p38b [9]: 80 | number of identified peptides, p38b [9]: 2 | mass spectrometry score, GSK3B [10]: 743 | number of identified peptides, GSK3B [10]: 34
Compound: Oc1ccc(-c2nc(-c3ccc(F)cc3)c(-c3ccncc3)[nH]2)cc1 [CZC7098]

mass spectrometry score, AAK1 [1]: 562 | number of identified peptides, AAK1 [1]: 38 | mass spectrometry score, CDK5 [2]: 831 | number of identified peptides, CDK5 [2]: 19 | mass spectrometry score, CR1K [11]: 90 | number of identified peptides, CR1K [11]: 5 | mass spectrometry score, CaMK2a [12]: 911 | number of identified peptides, CaMK2a [12]: 53 | mass spectrometry score, CaMK2b [13]: 834 | number of identified peptides, CaMK2b [13]: 52 | mass spectrometry score, CaMK2d [14]: 702 | number of identified peptides, CaMK2d [14]: 17 | mass spectrometry score, CaMKK2 [15]: 314 | number of identified peptides, CaMKK2 [15]: 6 | mass spectrometry score, Erk1ps5 [16]: 418 | number of identified peptides, Erk1ps5 [16]: 14 | mass spectrometry score, Erk2 [3]: 754 | number of identified peptides, Erk2 [3]: 50 | mass spectrometry score, FER [17]: 237 | number of identified peptides, FER [17]: 6 | mass spectrometry score, GSK3Aps [4]: 1232 | number of identified peptides, GSK3Aps [4]: 60 | mass spectrometry score, JNK2 [6]: 287 | number of identified peptides, JNK2 [6]: 11 | mass spectrometry score, MAP2K1 [18]: 208 | number of identified peptides, MAP2K1 [18]: 6 | mass spectrometry score, MARK2 [19]: 49 | number of identified peptides, MARK2 [19]: 1 | mass spectrometry score, PKCg [20]: 107 | number of identified peptides, PKCg [20]: 2 | mass spectrometry score, PYK2 [21]: 291 | number of identified peptides, PYK2 [21]: 7 | mass spectrometry score, RSK1 [22]: 292 | number of identified peptides, RSK1 [22]: 7 | mass spectrometry score, CaMK2g [23]: 550 | number of identified peptides, CaMK2g [23]: 18 | mass spectrometry score, GSK3B [10]: 1176 | number of identified peptides, GSK3B [10]: 54
Compound: NCCCn1cc(C2=C(c3c[nH]c4ccccc34)C(=O)NC2=O)c2ccccc21 [CZC1038, Bisindolylmaleimide III, reference compound]
